Source: patent US20250000858A1, “FGFR TYROSINE KINASE INHIBITORS FOR THE TREATMENT OF ADVANCED SOLID TUMORS” (JANSSEN PHARMACEUTICA NV, priority 2021, published 2025)
Like-named read-outs stand apart in the source and are kept apart here.

[1] = 144 treated BPC subjects (safety analysis set)
[2] = Broad Panel Cohort, 178 treated subjects, % of subjects, AE outcome of Fatal

Description: The following results include data from an efficacy analysis set and a safety analysis set. […] All subjects in the efficacy analysis set were treated and followed until the clinical cut-off date in accordance with the protocol, in order to provide adequate follow-up of at least 5 months of objective evidence of clinical activity on all subjects.

In the case of `COc1cc(OC)cc(N(CCNC(C)C)c2ccc3ncc(-c4cnn(C)c4)nc3c2)c1` [erdafitinib, N-(3,5-dimethoxy-phenyl)-N′-(1-methylethyl)-N-[3-(1-methyl-1H-pyrazol-4-yl)quinoxalin-6-yl]ethane-1,2-diamine], the “TEAEs leading to death” value (13 patients, BPC n=178, IA3) is reported as 7.3%, the “Drug-related serious TEAEs” value [1] is reported as 6.3% and the “diarrhea (TEAE)” value [1] is reported as 54.2%. For the same compound, the “drug related TEAEs leading to death” value [1] was “no drug related TEAEs leading to death”, the “drug-related TEAEs leading to discontinuation” value [1] was 3.5% and the “hyperphosphatemia (TEAE)” value [1] was 65.3%. For the same compound, the “stomatitis (TEAE)” value [1] was 49.3%, the “TEAEs leading to death” value [2] was 13 (7.3%) and the “TEAEs leading to death: Drug-related” value [2] was 1 (0.6%).
